In patent US20230042936A1, “PYRIDO[2,3-d]PYRIMIDIN-7(8H)-ONES AS CDK INHIBITORS” (PROSENESTAR LLC, priority 2020, published 2023):
Like-named read-outs stand apart in the source and are kept apart here.

How the values were obtained:
Type in all cases: biochemical
[1] = target: CDK2/CycE1 (Homo sapiens, UniProt P24941); assay: Kinase profiling
[2] = target: CDK3/CycC (Homo sapiens, UniProt Q00526); assay: Kinase profiling; conditions: 10 semi-logarithmic dilutions from 50 μM, singlicate
[3] = target: CDK5/p25NCK (Homo sapiens, UniProt Q00535); assay: Kinase profiling
[4] = target: CDK1/CycE1 (Homo sapiens, UniProt P06493); assay: Kinase profiling
[5] = target: CDK9/CycT1 (Homo sapiens, UniProt P50750); assay: Kinase profiling; conditions: 10 semi-logarithmic dilutions from 50 μM, singlicate
[6] = target: CDK12wt/CycK (Homo sapiens, UniProt Q9NYV4); assay: Kinase profiling; conditions: 10 semi-logarithmic dilutions from 50 μM, singlicate
[7] = target: CDK7/CycH/MAT1 (Homo sapiens, UniProt P50613); assay: Kinase profiling; conditions: 10 semi-logarithmic dilutions from 50 μM, singlicate
[8] = target: ERK1 (Homo sapiens, UniProt P27361); assay: Kinase profiling; conditions: 10 semi-logarithmic dilutions from 50 μM, singlicate
[9] = target: T1, DYRK2 (Homo sapiens, UniProt Q92630); assay: Kinase profiling; conditions: 10 semi-logarithmic dilutions from 50 μM, singlicate; read-out: IC50 DYRK2
T1 sequence (Q92630 1-601): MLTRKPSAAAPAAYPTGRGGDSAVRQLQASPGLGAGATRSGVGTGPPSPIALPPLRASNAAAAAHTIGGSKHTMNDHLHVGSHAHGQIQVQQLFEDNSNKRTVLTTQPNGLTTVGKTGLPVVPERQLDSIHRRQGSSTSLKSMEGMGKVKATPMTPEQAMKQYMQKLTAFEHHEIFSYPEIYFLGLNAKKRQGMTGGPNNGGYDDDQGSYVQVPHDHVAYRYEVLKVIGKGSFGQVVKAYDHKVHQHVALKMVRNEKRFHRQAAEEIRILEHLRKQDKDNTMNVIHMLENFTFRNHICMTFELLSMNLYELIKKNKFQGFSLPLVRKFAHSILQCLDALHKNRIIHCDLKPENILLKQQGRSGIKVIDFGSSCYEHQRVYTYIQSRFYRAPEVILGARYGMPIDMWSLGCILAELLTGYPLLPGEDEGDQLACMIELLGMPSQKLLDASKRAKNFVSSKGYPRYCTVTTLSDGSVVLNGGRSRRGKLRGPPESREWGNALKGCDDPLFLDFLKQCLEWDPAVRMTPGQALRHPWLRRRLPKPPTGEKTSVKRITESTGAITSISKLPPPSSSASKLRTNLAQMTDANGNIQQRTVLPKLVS

[10] = target: CDK4/CycD3 (Homo sapiens, UniProt P11802); assay: Kinase profiling
[11] = target: T2, AKT1 aa1-480 (Homo sapiens, UniProt P31749); assay: Kinase profiling; conditions: 10 semi-logarithmic dilutions from 50 μM, singlicate
T2 construct: AKT1 aa1-480

[12] = target: CDK1/CycB1 (Homo sapiens, UniProt P06493); assay: Kinase profiling
[13] = target: PCTAIRE1/CycY (Homo sapiens, UniProt Q00536); assay: Kinase profiling; conditions: 10 semi-logarithmic dilutions from 50 μM, singlicate
[14] = target: CDK6/CycD3 (Homo sapiens, UniProt Q00534); assay: Kinase profiling; conditions: 10 semi-logarithmic dilutions from 50 μM, singlicate
[15] = target: CDK3/CycE1 (Homo sapiens, UniProt Q00526); assay: Kinase profiling; conditions: 10 semi-logarithmic dilutions from 50 μM, singlicate
[16] = target: CDK2/CycA2 (Homo sapiens, UniProt P24941); assay: Kinase profiling
[17] = target: CDK9/CycK (Homo sapiens, UniProt P50750); assay: Kinase profiling; conditions: 10 semi-logarithmic dilutions from 50 μM, singlicate
[18] = target: CDK19/CycC (Homo sapiens, UniProt Q9BWU1); assay: Kinase profiling; conditions: 10 semi-logarithmic dilutions from 50 μM, singlicate
[19] = target: PIM1 (Homo sapiens, UniProt P11309); assay: Kinase profiling; conditions: 10 semi-logarithmic dilutions from 50 μM, singlicate
[20] = target: CDK6/CycD1 (Homo sapiens, UniProt Q00534); assay: Kinase profiling; conditions: 10 semi-logarithmic dilutions from 50 μM, singlicate
[21] = target: CDK4/CycD1 (Homo sapiens, UniProt P11802); assay: Kinase profiling; conditions: 10 semi-logarithmic dilutions from 50 μM, singlicate
[22] = target: HIPK2 (Homo sapiens, UniProt Q9H2X6); assay: Kinase profiling; conditions: 10 semi-logarithmic dilutions from 50 μM, singlicate; read-out: IC50 HIPK2
[23] = target: CDK5/p35NCK (Homo sapiens, UniProt Q00535); assay: Kinase profiling
[24] = target: CDK8/CycC (Homo sapiens, UniProt P49336); assay: Kinase profiling; conditions: 10 semi-logarithmic dilutions from 50 μM, singlicate
[25] = target: panel of 27 kinases (CDK family members); assay: Kinase profiling, results in words; conditions: from Table 1
[26] = target: DYRK1A (Homo sapiens, UniProt Q13627); assay: Kinase profiling; conditions: 10 semi-logarithmic dilutions from 50 μM, singlicate
[27] = target: CDC7/DBF4 (Homo sapiens, UniProt O00311); assay: Kinase profiling; conditions: 10 semi-logarithmic dilutions from 50 μM, singlicate; read-out: IC50 CDC7/DBF4
[28] = 10 semi-logarithmic dilutions from 50 μM, singlicate

Chain of ERK1 (P27361 whole entry): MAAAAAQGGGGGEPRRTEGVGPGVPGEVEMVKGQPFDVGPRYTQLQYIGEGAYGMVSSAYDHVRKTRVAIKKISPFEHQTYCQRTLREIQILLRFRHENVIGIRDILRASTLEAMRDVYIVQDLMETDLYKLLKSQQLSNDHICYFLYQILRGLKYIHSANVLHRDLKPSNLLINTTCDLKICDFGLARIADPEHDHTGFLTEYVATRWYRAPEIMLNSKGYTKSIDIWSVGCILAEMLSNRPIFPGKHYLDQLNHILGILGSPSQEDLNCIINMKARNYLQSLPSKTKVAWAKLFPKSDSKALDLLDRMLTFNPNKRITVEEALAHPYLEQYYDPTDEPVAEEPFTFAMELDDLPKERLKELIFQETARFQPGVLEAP
Chain of PIM1 (P11309 whole entry, species assumed): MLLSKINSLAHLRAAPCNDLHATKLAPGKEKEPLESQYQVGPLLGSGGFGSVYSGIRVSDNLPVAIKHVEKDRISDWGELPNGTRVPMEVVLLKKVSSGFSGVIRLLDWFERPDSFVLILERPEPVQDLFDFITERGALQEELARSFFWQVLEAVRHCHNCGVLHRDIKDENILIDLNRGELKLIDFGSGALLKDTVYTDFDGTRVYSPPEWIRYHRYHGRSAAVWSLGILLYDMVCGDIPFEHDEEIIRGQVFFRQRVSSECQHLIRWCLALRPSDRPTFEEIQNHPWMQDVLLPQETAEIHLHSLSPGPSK
Chain of CDK19/CycC (Q9BWU1 whole entry): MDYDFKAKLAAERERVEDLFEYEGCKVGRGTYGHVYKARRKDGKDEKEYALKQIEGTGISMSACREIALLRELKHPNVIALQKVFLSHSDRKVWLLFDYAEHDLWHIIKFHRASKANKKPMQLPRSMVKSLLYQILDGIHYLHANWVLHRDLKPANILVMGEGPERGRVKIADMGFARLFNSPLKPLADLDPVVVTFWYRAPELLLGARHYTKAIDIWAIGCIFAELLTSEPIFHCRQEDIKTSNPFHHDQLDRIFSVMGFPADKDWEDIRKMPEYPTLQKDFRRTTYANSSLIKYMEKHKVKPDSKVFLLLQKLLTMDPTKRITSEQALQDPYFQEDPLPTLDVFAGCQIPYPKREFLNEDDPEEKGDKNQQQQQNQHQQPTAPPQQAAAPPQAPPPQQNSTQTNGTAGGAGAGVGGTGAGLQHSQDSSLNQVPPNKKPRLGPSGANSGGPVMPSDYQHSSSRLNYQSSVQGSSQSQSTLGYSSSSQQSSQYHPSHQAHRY
Chain of CDK19/CycC (P24863 whole entry partner): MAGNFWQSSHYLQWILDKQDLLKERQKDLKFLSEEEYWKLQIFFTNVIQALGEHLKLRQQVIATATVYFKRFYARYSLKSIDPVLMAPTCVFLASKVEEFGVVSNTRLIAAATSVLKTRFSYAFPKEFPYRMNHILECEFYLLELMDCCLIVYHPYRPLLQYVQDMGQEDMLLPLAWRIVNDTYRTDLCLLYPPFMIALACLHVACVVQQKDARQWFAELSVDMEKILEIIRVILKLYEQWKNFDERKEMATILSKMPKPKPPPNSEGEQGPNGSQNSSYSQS
Chain of CDK4/CycD3 (P11802 whole entry, the tested form may be a part): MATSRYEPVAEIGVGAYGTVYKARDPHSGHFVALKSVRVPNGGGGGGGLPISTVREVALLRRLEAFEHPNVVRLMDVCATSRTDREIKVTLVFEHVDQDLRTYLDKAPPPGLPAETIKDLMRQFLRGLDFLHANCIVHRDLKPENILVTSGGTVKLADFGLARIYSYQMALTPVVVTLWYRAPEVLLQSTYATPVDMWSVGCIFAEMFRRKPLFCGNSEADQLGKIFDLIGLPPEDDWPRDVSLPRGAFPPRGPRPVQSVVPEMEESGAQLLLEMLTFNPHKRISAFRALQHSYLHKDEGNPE
Chain of CDK4/CycD3 (P30281 whole entry partner, the tested form may be a part): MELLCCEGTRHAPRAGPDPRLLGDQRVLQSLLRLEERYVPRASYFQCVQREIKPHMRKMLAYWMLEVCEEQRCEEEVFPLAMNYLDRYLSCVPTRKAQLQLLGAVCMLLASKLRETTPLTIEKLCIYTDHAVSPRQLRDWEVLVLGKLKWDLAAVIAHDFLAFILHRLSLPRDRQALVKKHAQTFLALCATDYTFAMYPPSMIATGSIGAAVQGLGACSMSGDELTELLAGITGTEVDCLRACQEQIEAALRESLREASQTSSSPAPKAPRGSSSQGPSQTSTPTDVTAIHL
Chain of CDK4/CycD1 (P11802 whole entry): as the sequence (P11802 whole entry, the tested form may be a part) above
Chain of CDK4/CycD1 (P24385 whole entry partner): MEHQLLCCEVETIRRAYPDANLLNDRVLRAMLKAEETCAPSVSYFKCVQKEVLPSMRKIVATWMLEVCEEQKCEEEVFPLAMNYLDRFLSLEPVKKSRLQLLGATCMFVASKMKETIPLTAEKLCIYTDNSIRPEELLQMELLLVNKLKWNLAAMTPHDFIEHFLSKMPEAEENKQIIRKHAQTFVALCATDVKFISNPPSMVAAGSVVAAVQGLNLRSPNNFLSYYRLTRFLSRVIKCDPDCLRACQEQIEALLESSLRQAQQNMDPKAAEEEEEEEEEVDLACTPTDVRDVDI
Chain of CDK12wt/CycK (Q9NYV4 whole entry): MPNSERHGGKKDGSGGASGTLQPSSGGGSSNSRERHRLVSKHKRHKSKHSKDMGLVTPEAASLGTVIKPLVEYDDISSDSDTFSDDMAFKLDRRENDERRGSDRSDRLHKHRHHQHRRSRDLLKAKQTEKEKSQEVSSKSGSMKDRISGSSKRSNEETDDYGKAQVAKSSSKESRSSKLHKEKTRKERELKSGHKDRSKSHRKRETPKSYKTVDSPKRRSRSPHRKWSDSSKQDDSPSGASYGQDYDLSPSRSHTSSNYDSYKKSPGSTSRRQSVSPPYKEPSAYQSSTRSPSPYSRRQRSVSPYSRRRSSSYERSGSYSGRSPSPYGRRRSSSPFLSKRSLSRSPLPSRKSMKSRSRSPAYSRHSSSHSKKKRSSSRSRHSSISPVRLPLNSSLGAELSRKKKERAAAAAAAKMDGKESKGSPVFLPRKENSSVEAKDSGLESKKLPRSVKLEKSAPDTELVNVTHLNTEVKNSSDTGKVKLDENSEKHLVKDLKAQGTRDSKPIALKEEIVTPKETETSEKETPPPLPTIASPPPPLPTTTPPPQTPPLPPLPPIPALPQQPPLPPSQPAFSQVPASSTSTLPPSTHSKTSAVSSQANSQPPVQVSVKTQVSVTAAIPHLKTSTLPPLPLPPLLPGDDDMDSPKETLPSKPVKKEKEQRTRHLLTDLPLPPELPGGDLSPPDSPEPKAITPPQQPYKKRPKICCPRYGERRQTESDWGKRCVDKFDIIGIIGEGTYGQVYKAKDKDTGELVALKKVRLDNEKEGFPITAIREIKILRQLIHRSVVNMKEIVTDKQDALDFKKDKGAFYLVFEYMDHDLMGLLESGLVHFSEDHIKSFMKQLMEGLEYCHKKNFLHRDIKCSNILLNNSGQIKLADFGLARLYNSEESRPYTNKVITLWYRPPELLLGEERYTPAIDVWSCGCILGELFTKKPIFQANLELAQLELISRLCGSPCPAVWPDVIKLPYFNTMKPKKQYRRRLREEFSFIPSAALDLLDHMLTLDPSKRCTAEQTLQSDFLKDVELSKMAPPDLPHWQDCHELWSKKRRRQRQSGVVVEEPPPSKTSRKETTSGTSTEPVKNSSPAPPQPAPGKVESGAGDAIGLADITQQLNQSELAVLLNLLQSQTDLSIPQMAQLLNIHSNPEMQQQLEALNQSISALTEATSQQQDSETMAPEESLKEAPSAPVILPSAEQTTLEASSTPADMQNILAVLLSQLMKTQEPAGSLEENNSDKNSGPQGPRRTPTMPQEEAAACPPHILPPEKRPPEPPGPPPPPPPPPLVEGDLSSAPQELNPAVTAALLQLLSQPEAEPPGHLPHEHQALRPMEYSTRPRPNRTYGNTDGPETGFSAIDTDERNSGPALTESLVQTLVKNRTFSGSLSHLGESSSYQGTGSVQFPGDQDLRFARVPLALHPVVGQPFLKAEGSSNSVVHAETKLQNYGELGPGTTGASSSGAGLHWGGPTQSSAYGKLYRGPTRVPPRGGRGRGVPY
Chain of CDK12wt/CycK (O75909 whole entry partner): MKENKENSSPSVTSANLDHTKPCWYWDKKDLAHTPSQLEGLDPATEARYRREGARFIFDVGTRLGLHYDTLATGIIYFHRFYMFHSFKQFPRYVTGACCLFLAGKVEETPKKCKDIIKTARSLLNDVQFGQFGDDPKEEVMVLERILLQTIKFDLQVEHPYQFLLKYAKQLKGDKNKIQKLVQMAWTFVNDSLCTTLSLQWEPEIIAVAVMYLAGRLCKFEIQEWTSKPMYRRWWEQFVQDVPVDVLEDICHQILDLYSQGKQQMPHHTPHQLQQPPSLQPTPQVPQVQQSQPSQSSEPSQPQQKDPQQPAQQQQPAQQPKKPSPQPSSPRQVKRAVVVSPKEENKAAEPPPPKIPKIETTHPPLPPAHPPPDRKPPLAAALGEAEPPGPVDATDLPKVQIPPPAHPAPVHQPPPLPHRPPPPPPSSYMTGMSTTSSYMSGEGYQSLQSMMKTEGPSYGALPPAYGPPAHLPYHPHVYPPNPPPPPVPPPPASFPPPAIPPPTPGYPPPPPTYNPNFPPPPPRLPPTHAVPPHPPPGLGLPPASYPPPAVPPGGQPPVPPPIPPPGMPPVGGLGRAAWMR
Chain of CDK9/CycK (P50750 whole entry): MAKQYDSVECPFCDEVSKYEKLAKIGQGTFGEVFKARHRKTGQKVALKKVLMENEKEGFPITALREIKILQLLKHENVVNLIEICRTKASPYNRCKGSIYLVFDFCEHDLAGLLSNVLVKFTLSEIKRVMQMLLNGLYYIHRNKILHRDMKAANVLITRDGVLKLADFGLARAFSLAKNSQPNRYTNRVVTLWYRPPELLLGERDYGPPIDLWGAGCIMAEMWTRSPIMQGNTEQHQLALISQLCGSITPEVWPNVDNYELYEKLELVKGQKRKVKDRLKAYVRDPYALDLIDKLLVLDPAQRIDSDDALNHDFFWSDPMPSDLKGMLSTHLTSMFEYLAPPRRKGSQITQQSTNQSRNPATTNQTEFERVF
Chain of CDK9/CycK (O75909 whole entry partner): as the sequence (O75909 whole entry partner) above

Row | Structure (SMILES) | IC50 [1, 28] [nM] | IC50 [2] [nM] | IC50 [5] [nM] | IC50 [6] [nM] | IC50 [7] [nM] | IC50 [8] [nM] | IC50 [9] [nM] | IC50 [11] [nM] | IC50 [13] [nM] | IC50 [14] [nM] | IC50 [15] [nM] | IC50 [17] [nM] | IC50 [18] [nM] | IC50 [19] [nM] | IC50 [20] [nM] | IC50 [21] [nM] | IC50 [22] [nM] | IC50 [24] [nM] | IC50 [26] [nM] | IC50 [27] [nM] | also measured
1 | O=c1ccc2cnc(Nc3ccc(N4CCNCC4)cc3)nc2n1[C@@H]1CC2CCC1C2 (stereo partly drawn) [PS007, 8-((2R)-bicyclo[2.2.1]heptan-2-yl)-2-((4-(piperazin-1-yl)phenyl)amino)pyrido[2,3-d]pyrimidin-7(8H)-one] | 7.8 | 40.1 | 13.6 | 25.8 | 91.1 | 2750 | 2310 | 11600 | 4.04 | 9.66 | 11.9 | 7.17 | 288 | 485 | < 1.5 | < 1.5 | 5560 | 307 | 1180 | 537 | IC50 [3, 28]: 52.3 nM; IC50 [4, 28]: 40.8 nM; IC50 [10, 28]: 2.25 nM; IC50 [12, 28]: 97.3 nM; IC50 [16, 28]: 17.1 nM; IC50 [23, 28]: 15.9 nM; kinase affinity profile [25]: bind many other CDK family members
2 | CC(O)CCC1CCN(c2ccc(Nc3ncc4ccc(=O)n([C@@H]5CC6CCC5C6)c4n3)cc2)CC1 (stereo partly drawn) [PS004, 8-((2R)-bicyclo[2.2.1]heptan-2-yl)-2-((4-(4-(3-hydroxybutyl)piperidin-1-yl)phenyl)amino)pyrido[2,3-d]pyrimidin-7(8H)-one] | 303 | 2100 | 264 | 923 | 21700 | 37800 | 40500 | > 50000 | 13500 | 442 | 654 | 141 | 9600 | > 50000 | 27.4 | 35.3 | > 50000 | 162 | > 50000 | 9900 | IC50 [3, 28]: 4410 nM; IC50 [4, 28]: 3320 nM; IC50 [10, 28]: 123 nM; IC50 [12, 28]: 16400 nM; IC50 [16, 28]: 452 nM; IC50 [23, 28]: 1670 nM; kinase affinity profile [25]: affinity not only for CDK4/6 but also for CDK2/9
3 | O=c1ccc2cnc(Nc3ccc(N4CCC(OCC5(CO)COC5)CC4)cc3)nc2n1[C@@H]1CC2CCC1C2 (stereo partly drawn) [PS016, 8-((2R)-bicyclo[2.2.1]heptan-2-yl)-2-((4-(4-((3-(hydroxymethyl)oxetan-3-yl)methoxy)piperidin-1-yl)phenyl)amino)pyrido[2,3-d]pyrimidin-7(8H)-one] | 71.7 | 555 | 92.5 | 339 | 2370 | 10700 | 19700 | > 50000 | 2020 | 33.3 | 93.4 | 46.9 | 2790 | 40100 | 7.42 | 8.86 | > 50000 | 37.9 | 28800 | 1980 | IC50 [3, 28]: 652 nM; IC50 [4, 28]: 527 nM; IC50 [10, 28]: 20.8 nM; IC50 [12, 28]: 614 nM; IC50 [16, 28]: 49.7 nM; IC50 [23, 28]: 255 nM; additional affinity for CDK1/2 [25]: additional affinity; affinity for CDK5 [25]: presented affinity
4 | O=c1ccc2cnc(Nc3ccc(N4CCC(CCCO)CC4)c(F)c3)nc2n1[C@@H]1CC2CCC1C2 (stereo partly drawn) [PS003, 8-((2R)-bicyclo[2.2.1]heptan-2-yl)-2-((3-fluoro-4-(4-(3-hydroxypropyl)piperidin-1-yl)phenyl)amino)pyrido[2,3-d]pyrimidin-7(8H)-one] | 545 | 3950 | 918 | 3180 | 20000 | > 50000 | > 50000 | > 50000 | 43800 | 623 | 1130 | 456 | 19200 | > 50000 | 73.2 | 150 | > 50000 | 677 | > 50000 | 7610 | IC50 [3, 28]: 4660 nM; IC50 [4, 28]: 2970 nM; IC50 [10, 28]: 376 nM; IC50 [12, 28]: 4690 nM; IC50 [16, 28]: 810 nM; IC50 [23, 28]: 1920 nM
5 | O=c1ccc2cnc(Nc3ccc(N4CCC(CCCO)CC4)cc3F)nc2n1[C@@H]1CC2CCC1C2 (stereo partly drawn) [PS002, 8-((2R)-bicyclo[2.2.1]heptan-2-yl)-2-((2-fluoro-4-(4-(3-hydroxypropyl)piperidin-1-yl)phenyl)amino)pyrido[2,3-d]pyrimidin-7(8H)-one] | 7290 | 27100 | 8070 | 28400 | 40700 | 47500 | > 50000 | > 50000 | > 50000 | 12600 | 17200 | 7050 | 24900 | 27900 | 485 | 1270 | > 50000 | 122 | > 50000 | 14600 | IC50 [3, 28]: > 50000 nM; IC50 [4, 28]: 14600 nM; IC50 [10, 28]: 3840 nM; IC50 [12, 28]: 42100 nM; IC50 [16, 28]: 19700 nM; IC50 [23, 28]: 38600 nM
6 | O=c1ccc2cnc(Nc3ccc(N4CCC(CCCO)CC4)cc3)nc2n1C1CC2CCC1C2 (stereo not shown) [PD-0183812, reference compound] |  | 5210 | 484 | 3160 | 45400 | 29600 | > 50000 | 48000 | 43500 | 301 | 885 | 174 | 17400 | 35900 | 19.9 | 31.6 | > 50000 | 256 | 31900 | 18800 | IC50 [1]: 122 nM; IC50 [3]: 30100 nM; IC50 [4]: 8090 nM; IC50 [10]: 71.8 nM; IC50 [12]: 32100 nM; IC50 [16]: 341 nM; IC50 [23]: 1840 nM
